No end group written: not given here.
What was measured:
Assay type in all cases: binding, mouse
[1] = tested on: mAbs H44/24, H44/58, H44/70, H44/78, 4BE12C10; assay: ELISA test for the peptide-on-phage mAb interaction; conditions: peptide-on-phage coated at 5×10^11 particules/ml; positives tested a second time
Method: To assess the binding of the mAbs to the numerous peptides-on-phage, all clones have been produced independently using the following protocol.
A preculture of E. coli DH11S infected with the phage was grown overnight. A sample of this preculture was used to inoculate a new 50 ml culture with a starting OD600nm of 0.050. This culture was grown up to an OD600nm of 0.20 to 0.25 with vigorous shaking at 37° C. The culture was then slowed down for 15 minutes in order to allow the regeneration of pili. M13K07 helper phage was added at an MOI of 20, and superinfection was allowed for 15 more minutes at 37° C. with slow agitation. IPTG (1 mM final concentration) was then added and the culture was grown for 5 hours with vigorous agitation.
A colony of K91kan containing the clone of interest (on a LB Tet plate) was added to 50 ml of LB supplemented with 20 μg/ml tetracycline and grown overnight at 37° C. with strong agitation.
Culture was centrifuged for 15 minutes at 4000RPM; 0.15 volume of PEG-NaCl solution was added to the supernatant for precipitating the phage and kept overnight at 4° C. Phage were collected by centrifugation, 45 minutes at 4000RPM. After being resuspended in TBS, phage were heated 15 minutes at 65° C. to kill remaining bacteria and to denature soluble proteins present in the sample. The solution was then centrifuged and the pellet was discarded. Phage in the supernatant were then precipitated again as indicated above. Phage were finally resuspended in 200 μl of TBS. Concentration of phage particules was determined by measuring the ΔOD at 269 nm-320 nm.
(§1) Phages were coated at 5×10^11 particules/ml on MaxiSorp multiwell plates. Coating was performed overnight at 4° C. with 100 μl/well. Plates were saturated with 5% (v/v) skimmed milk in TBS for 2 hours at 37° C. and washed 5 times with TBS-Tween20 0.05% (v/v). The mAbs were then incubated in the coated wells for 1 hour at 37° C., washed 5 times, and GAM-HRP conjugate (1500-fold dilution, Dako, Denmark) was added for 1 hour at 37° C. to detect the binding of the mAb to the phages. After 5 washings, the peroxidase activity was monitored by addition of the K-Blue® substrate (Neogen, Lexington, USA) at room temperature for 20 minutes. Reaction was stopped by addition of 25 μl of 2N H2SO4. Reading was performed at 450-630 nm. Each phage was coated in triplicate for testing with each mAb.

[2] = tested on: mAb H44/58; assay: SPOT peptide immunoblot, mAb H44/58
Source text: Another experiment for determining the best peptide candidates for immunisation trials is whether chemically synthesized peptides are recognized by at least one anti-MenB LOS mAb (and preferably not by irrelevant mAbs). This can be assessed on SPOT synthesized peptides (peptides synthesized directly on a cellulose membrane). This membrane can be tested with different mAbs by repetitive immunoblottings and chemiluminescent detection. Peptides may be synthesised with 3 residues originating from the pVIII protein sequence on each end of the peptide. Indeed, the primary structure of the peptides expressed in fusion with pVIII on the surface of the bacteriophage is as follows (x for any residue in the library):
For example linear peptides comprising peptide No. 61 from Table 2 (GEFPRPHFGAPPDPA) and peptide No. 83 (GEFAERSLWYYPDPA) were synthesised on one membrane, and cyclised peptides comprising peptide No. 50 from Table 2 (GEFCSSYSYVHDSCGDP), peptide 14 (GEFCSHAPPYDRVCGDP) and peptide 25 (GEFCRAPPYDTIMCGDP) were synthesised on another.
The protocol used to probe these membranes with mAbs was the one provided by Genosys, with some modifications, especially for the regeneration of membranes with cyclised peptides. […]

[3] = tested on: mAb H44/58; assay: Phage-ELISA with mAb H44/58; conditions: peptide-on-phage
Method: as §1

Sequence	Phage ELISA: positive with at least one mAb [1]	other results
AERSLWYYP [Peptide 83]	positive	SPOT recognition by mAb 58 (H44/58) ([2]; Membrane 1 (linear peptide)): recognized
AITGVRARW (LOS peptide mimotope sequence) [Peptide 143]	positive	–
ARWYPISQT (LOS peptide mimotope sequence) [Peptide 124]	positive	–
CANSRPGGYLC (LOS peptide mimotope sequence) [Peptide 30]	positive	–
CAPPGIAVRTC (not fully specified (bridges); cysteine pairing not given here) [Peptide 115]	positive	–
CAPYSIFIGEC (not fully specified (bridges); cysteine pairing not given here) [Peptide 17]	positive	–
CFARPFQGTWC (LOS peptide mimotope sequence) [Peptide 22]	positive	–
CFGLIAFHPDC (LOS peptide mimotope sequence) [Peptide 27]	positive	–
CHSVQPATRAC (LOS peptide mimotope sequence) [Peptide 131]	positive	–
CIDAGSHGWLC (LOS peptide mimotope sequence) [Peptide 133]	positive	–
CISEYAKGTTC (LOS peptide mimotope sequence) [Peptide 13]	positive	–
CLAASADTAAC (LOS peptide mimotope sequence) [Peptide 139]	positive	–
CLWRPIDPFLC (LOS peptide mimotope sequence) [Peptide 82]	positive	–
CPKAPFSPFKC (LOS peptide mimotope sequence) [Peptide 132]	positive	–
CPPPWSTHDC (LOS peptide mimotope sequence) [Peptide 141]	positive	–
CPYTSWAREGC (LOS peptide mimotope sequence) [Peptide 140]	positive	–
CQPIGPPYDRC (LOS peptide mimotope sequence) [Peptide 28]	positive	–
CRAPPYDTIMC [Peptide 25]	–	Phage-ELISA result with mAb H44/58 [3]: positive; SPOT recognition by mAb 58 (H44/58) ([2]; Membrane 2 (cyclic peptides), synthesised with pVIII flanking residues): positive
CRFTYDPPFMC (LOS peptide mimotope sequence) [Peptide 51]	positive	–
CRGLQGHIAYC (LOS peptide mimotope sequence) [Peptide 87]	positive	–
CRPAFDPPYHC (LOS peptide mimotope sequence) [Peptide 54]	positive	–
CSEPWSTSNC (LOS peptide mimotope sequence) [Peptide 142]	positive	–
CSHAPPYDRVC [Peptide 14]	positive	Phage-ELISA result with mAb H44/58 [3]: positive
CSSLYYHGTAC (LOS peptide mimotope sequence) [Peptide 39]	positive	–

Sequence	Phage ELISA: positive with at least one mAb [1]	other results
CSSYSYVHDSC [Peptide 50]	positive	–
CTANVYFGTYC [Peptide 29]	positive	–
CTHYSFYGDIC (LOS peptide mimotope sequence) [Peptide 66]	positive	–
CTPLPDGGILC (LOS peptide mimotope sequence) [Peptide 103]	positive	–
CYPQLSHANPC (LOS peptide mimotope sequence) [Peptide 105]	positive	–
DSAPAVKSS (LOS peptide mimotope sequence) [Peptide 85]	positive	–
EKKHFNYGT (LOS peptide mimotope sequence) [Peptide 144]	positive	–
EKKRFESNT (LOS peptide mimotope sequence) [Peptide 145]	positive	–
EQGYCTVNIEQCAKYR (LOS peptide mimotope sequence) [Peptide 146]	positive	–
GPWHGPSSS (LOS peptide mimotope sequence) [Peptide 93]	positive	–
HGRTLWYTP (LOS peptide mimotope sequence) [Peptide 55]	positive	–
LKWGDGSSA (LOS peptide mimotope sequence) [Peptide 104]	positive	–
NSPTSCKWLCNEKF (LOS peptide mimotope sequence) [Peptide 148]	positive	–
PGWYDAHPT (LOS peptide mimotope sequence) [Peptide 86]	positive	–
PLWYDPAPP (LOS peptide mimotope sequence) [Peptide 47]	positive	–
PRPHFGAPP [Peptide 61]	positive	–
RGSEGSFAR (LOS peptide mimotope sequence) [Peptide 45]	positive	–
SNWYENTPT (LOS peptide mimotope sequence) [Peptide 58]	positive	–
SPADCDYTTLCAKPT (LOS peptide mimotope sequence) [Peptide 147]	positive	–
SQWRSAAPT (LOS peptide mimotope sequence) [Peptide 53]	positive	–
WYIAPRKTL (LOS peptide mimotope sequence) [Peptide 63]	positive	–
WYSAPENAL (LOS peptide mimotope sequence) [Peptide 88]	positive	–
WYTTPTRPV (LOS peptide mimotope sequence) [Peptide 75]	positive	–

Source: patent US20040047880A1, “Component for vaccine” (priority 2000, published 2004)
